# Measurements reported in ChEMBL document CHEMBL4020724, “Selective HDAC inhibitors with potent oral activity against leukemia and colorectal cancer: Design, structure-activity relationship and anti-tumor activity study” (Eur J Med Chem, 2017).
# The source made the active and inactive calls. The rule behind the calls is not given here.
# Columns and labels:
# [1] = tested on: HL-60; assay: Induction of apoptosis in human HL60 cells assessed as decrease in procaspase-3 level at 1 to 5 uM after 48 hrs by Western blot analysis; format: functional, cell-based
# [2] = tested on: K562; assay: cells; conditions: Homo sapiens, K562, 48 h
# [3] = tested on: HCT-116; assay: cells; conditions: Homo sapiens, HCT-116, 48 h
# [4] = tested on: HL-60; assay: Induction of apoptosis in human HL60 cells assessed as increase in cleaved caspase-3 level at 1 to 5 uM after 48 hrs by Western blot analysis; format: functional, cell-based
# [5] = target: Histone deacetylase 1 (Homo sapiens, UniProt Q13547); assay: Inhibition of HDAC1 (unknown origin) using Boc-Lys (acetyl)-AMC as substrate incubated for 10 mins followed by substrate addition measured after 30 mins by fluorescence assay
# [6] = target: T1, Histone deacetylase (HDAC1 and HDAC2) (Homo sapiens) (UniProt Q13547+Q92769); assay: Inhibition of HDAC1/2 in human HL60 cells assessed as increase in acetylated histone H3 level at 1 to 5 uM after 48 hrs by Western blot analysis; format: cell-based
# [7] = tested on: HL-60; assay: Induction of apoptosis in human HL60 cells assessed as increase in cleaved PARP level at 1 to 5 uM after 48 hrs by Western blot analysis; format: functional, cell-based
# [8] = tested on: U-937; assay: cells; conditions: Homo sapiens, U-937, 48 h
# Description: Antiproliferative activity against human U937 cells after 48 hrs by MTT assay
# [9] = target: Histone deacetylase 3 (Homo sapiens, UniProt O15379); assay: Inhibition of HDAC3 (unknown origin) using Boc-Lys (acetyl)-AMC as substrate incubated for 10 mins followed by substrate addition measured after 30 mins by fluorescence assay
# [10] = target: Histone deacetylase 2 (Homo sapiens, UniProt Q92769); assay: Inhibition of HDAC2 (unknown origin) using Boc-Lys (acetyl)-AMC as substrate incubated for 10 mins followed by substrate addition measured after 30 mins by fluorescence assay
# [11] = tested on: U-266; assay: Antiproliferative activity against human U266 cells after 48 hrs by MTT assay; format: functional, cell-based; conditions: U-266, 48 h
# [12] = tested on: HEL; assay: Antiproliferative activity against HEL cells after 48 hrs by MTT assay; format: functional, cell-based; conditions: Homo sapiens
# [13] = target: T1, Histone deacetylase (HDAC1 and HDAC2) (Homo sapiens); assay: Inhibition of HDAC1/2 in human HL60 cells assessed as increase in acetylated histone H4 level at 1 to 5 uM after 48 hrs by Western blot analysis; format: cell-based
# [14] = cells; conditions: Homo sapiens, ES-2, 48 h
# Description: Antiproliferative activity against human ES2 cells after 48 hrs by MTT assay
# [15] = tested on: HL-60; assay: cells; conditions: Homo sapiens, HL-60, 48 h
# Description: Antiproliferative activity against human HL60 cells after 48 hrs by MTT assay
# [16] = Inhibition of class 1 HDAC in human HL60 cells using Boc-Ac-Lys-AMC as substrate incubated for 3 hrs followed by substrate addition measured after 3 hrs by fluorescence assay; format: cell-based; conditions: HL-60, 3 h
# [17] = tested on: Mus musculus; assay: Toxicity in BALB/c nude mouse xenografted with human HCT116 cells assessed as body weight at 100 mg/kg/day administered via oral gavage for 16 days (reference value: 19.91 +/- 1.26 g); format: organism-based; conditions: in vivo, 384 h
# Chain of Histone deacetylase 3 (O15379 whole entry): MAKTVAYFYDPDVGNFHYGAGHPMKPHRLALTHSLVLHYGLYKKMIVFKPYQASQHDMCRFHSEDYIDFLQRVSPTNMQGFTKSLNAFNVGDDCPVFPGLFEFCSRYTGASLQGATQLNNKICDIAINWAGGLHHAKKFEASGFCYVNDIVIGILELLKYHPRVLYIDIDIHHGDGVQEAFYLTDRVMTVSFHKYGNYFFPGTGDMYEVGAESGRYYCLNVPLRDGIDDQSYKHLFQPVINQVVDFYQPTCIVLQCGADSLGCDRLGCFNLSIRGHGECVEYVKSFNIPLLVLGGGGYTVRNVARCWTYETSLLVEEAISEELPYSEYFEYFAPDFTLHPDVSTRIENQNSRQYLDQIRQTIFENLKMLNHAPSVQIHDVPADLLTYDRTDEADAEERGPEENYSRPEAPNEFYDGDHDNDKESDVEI
# Chain of Histone deacetylase 2 (Q92769 whole entry): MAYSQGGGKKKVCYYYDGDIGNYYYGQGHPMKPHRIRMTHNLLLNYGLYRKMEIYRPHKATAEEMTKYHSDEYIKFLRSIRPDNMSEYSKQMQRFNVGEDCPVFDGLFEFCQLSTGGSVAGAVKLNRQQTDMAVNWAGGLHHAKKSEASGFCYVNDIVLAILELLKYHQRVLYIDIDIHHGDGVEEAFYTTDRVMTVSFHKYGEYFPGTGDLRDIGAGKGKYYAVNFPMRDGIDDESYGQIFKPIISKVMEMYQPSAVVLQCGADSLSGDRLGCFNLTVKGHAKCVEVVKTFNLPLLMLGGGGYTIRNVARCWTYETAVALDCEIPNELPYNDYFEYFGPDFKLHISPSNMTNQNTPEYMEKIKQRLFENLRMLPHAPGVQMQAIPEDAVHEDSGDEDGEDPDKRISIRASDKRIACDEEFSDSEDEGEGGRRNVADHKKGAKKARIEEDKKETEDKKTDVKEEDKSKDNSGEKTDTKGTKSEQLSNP
# Chain of Histone deacetylase 1 (Q13547 whole entry): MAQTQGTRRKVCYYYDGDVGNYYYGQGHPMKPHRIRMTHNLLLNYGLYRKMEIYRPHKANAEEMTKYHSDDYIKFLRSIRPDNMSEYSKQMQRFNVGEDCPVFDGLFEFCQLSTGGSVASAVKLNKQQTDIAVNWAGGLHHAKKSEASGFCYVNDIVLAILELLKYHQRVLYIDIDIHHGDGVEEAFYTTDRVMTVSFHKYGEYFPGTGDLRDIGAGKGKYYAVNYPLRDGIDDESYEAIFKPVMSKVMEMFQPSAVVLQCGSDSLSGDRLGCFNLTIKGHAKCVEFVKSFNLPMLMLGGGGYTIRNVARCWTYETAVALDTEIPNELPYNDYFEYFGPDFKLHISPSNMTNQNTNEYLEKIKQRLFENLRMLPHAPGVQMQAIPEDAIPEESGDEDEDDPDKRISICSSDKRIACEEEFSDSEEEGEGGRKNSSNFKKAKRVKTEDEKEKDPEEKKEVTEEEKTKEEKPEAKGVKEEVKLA
# T1 sequence (Q13547 whole entry, looked up): as the sequence (Q13547 whole entry) above
# T1 sequence (Q92769 whole entry, looked up): as the sequence (Q92769 whole entry) above
IC50 [15],IC50 [16],Compound,IC50 [5],IC50 [9],IC50 [10],also measured
2.38 µM,1.51 µM,CN(C)c1ccc(C(=O)N[C@@H](Cc2c[nH]c3ccccc23)C(=O)NCc2ccc(C(=O)Nc3ccccc3N)cc2)cc1,,,,
1.74 µM,0.78 µM,Nc1ccccc1NC(=O)c1ccc(CNC(=O)[C@H](Cc2c[nH]c3ccccc23)NC(=O)c2cccs2)cc1,,,,
3.09 µM,1.98 µM,Nc1ccccc1NC(=O)c1ccc(CNC(=O)[C@H](Cc2c[nH]c3ccccc23)NC(=O)c2ccc(C(F)(F)F)cc2)cc1,,,,

# The next lines start with the compound.
Compound,IC50 [15],IC50 [16],IC50 [5],IC50 [9],IC50 [10],also measured
COc1ccc(C(=O)N[C@@H](Cc2c[nH]c3ccccc23)C(=O)NCc2ccc(C(=O)Nc3cc(-c4ccccc4)ccc3N)cc2)cc1,,,0.0584 µM,30.9 µM,0.311 µM,Activity [1]: inactive; IC50 [2]: 14 µM; IC50 [3]: > 20 µM; Activity [4]: inactive; inhibition [6]: Active; Activity [7]: inactive; IC50 [8]: > 20 µM; IC50 [11]: > 20 µM; IC50 [12]: > 20 µM; inhibition [13]: Active; IC50 [14]: > 20 µM
Nc1ccccc1NC(=O)c1ccc(CNC(=O)[C@H](Cc2c[nH]c3ccccc23)NC(=O)c2ccccn2)cc1,6.09 µM,1.61 µM,,,,
Nc1ccccc1NC(=O)c1ccc(CNC(=O)[C@H](Cc2c[nH]c3ccccc23)NC(=O)c2ccco2)cc1,2.4 µM,0.91 µM,,,,
Nc1ccccc1NC(=O)c1ccc(CNC(=O)[C@H](Cc2c[nH]c3ccccc23)NC(=O)c2cnccn2)cc1,5.85 µM,1.02 µM,,,,
O=C(CCCCCCC(=O)Nc1ccccc1)NO [VORINOSTAT],,,,,,Activity [17]: 21.23 g
COc1ccc(C(=O)N[C@@H](Cc2c[nH]c3ccccc23)C(=O)Nc2ccc(C(=O)Nc3cc(-c4cccs4)ccc3N)cc2)cc1,,,0.0365 µM,62.5 µM,0.314 µM,
COc1ccc(C(=O)N[C@@H](Cc2c[nH]c3ccccc23)C(=O)NCCCCCC(=O)Nc2ccccc2N)cc1,,,0.0586 µM,0.0429 µM,0.296 µM,
COc1ccc(C(=O)N[C@@H](Cc2c[nH]c3ccccc23)C(=O)NCCCCCC(=O)Nc2cc(-c3ccccc3)ccc2N)cc1,,,0.0555 µM,5.63 µM,0.49 µM,IC50 [3]: > 20 µM; IC50 [8]: > 20 µM; IC50 [11]: > 20 µM; IC50 [14]: > 20 µM
